# Measured values from patent US11739070B2, “C5A receptor modulators” (IDORSIA PHARMACEUTICALS LTD, priority 2018, dated 2023).
# Molecular target: T1, C5AR1 (Homo sapiens, UniProt P21730)
# T1 construct: host or cells: CHO-K1
# T1 sequence (P21730 1-350): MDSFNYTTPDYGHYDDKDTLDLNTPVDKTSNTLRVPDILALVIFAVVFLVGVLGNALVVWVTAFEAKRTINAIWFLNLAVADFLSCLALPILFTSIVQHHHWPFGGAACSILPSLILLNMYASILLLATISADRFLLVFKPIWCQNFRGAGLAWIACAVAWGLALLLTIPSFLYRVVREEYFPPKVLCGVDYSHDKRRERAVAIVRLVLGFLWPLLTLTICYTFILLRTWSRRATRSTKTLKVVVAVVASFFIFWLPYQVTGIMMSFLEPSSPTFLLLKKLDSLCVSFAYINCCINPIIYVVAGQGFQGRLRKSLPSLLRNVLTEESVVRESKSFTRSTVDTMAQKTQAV
# Assay: hC5a DISCO IC50 assay (PathHunter beta-arrestin, antagonist mode)
# Type: cell-based
# Details: CHO-K1 C5AR1 beta-arrestin cell line; antagonist vs 1-10 nM C5a agonist; geometric mean values; read-out: C5aR IC50
# Method in brief: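 Antagonist added first, then 1-10 nM C5a agonist; cells incubated 1.5 h at 37 °C. Beta-arrestin signal developed with PathHunter detection reagent, 45 min at RT. IC50 in nmol/l from serial antagonist dilutions, reported as geometric mean of several measurements.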
row,SMILES,IC50 [nM]
1,"COc1cccc2c1n(Cc1c(F)cc(F)cc1OC(C)C)c(=O)n2[C@@H]1CCN(c2c(C)cccc2F)C1 [Example 220, 3-(2,4-Difluoro-6-isopropoxy-benzyl)-1-[(R)-1-(2-fluoro-6-methyl-phenyl)-pyrrolidin-3-yl]-4-methoxy-1,3-dihydro-benzoimidazol-2-one]",109
2,"COc1cccc2c1n(Cc1sc(C)nc1C(F)(F)F)c(=O)n2[C@@H]1CCN(c2c(C)cccc2F)C1 [Example 221, 1-[(R)-1-(2-Fluoro-6-methyl-phenyl)-pyrrolidin-3-yl]-4-methoxy-3-(2-methyl-4-trifluoromethyl-thiazol-5-ylmethyl)-1,3-dihydro-benzoimidazol-2-one]",175
3,"COc1cccc2c1n(Cc1ccccc1C(F)(F)F)c(=O)n2C1CCN(C(=O)C2CC2)CC1 [Example 222, 1-(1-Cyclopropanecarbonyl-piperidin-4-yl)-4-methoxy-3-(2-trifluoromethyl-benzyl)-1,3-dihydro-benzoimidazol-2-one]",2650
4,"COc1cccc2c1n(Cc1ccccc1C1CC1)c(=O)n2C1CCN(c2c(C)cccc2F)CC1 [Example 223, 3-(2-Cyclopropyl-benzyl)-1-[1-(2-fluoro-6-methyl-phenyl)-piperidin-4-yl]-4-methoxy-1,3-dihydro-benzoimidazol-2-one]",130
5,"COc1cccc2c1n(Cc1ccccc1OCC1CC1)c(=O)n2C1CCN(c2c(C)cccc2F)CC1 [Example 224, 3-(2-Cyclopropylmethoxy-benzyl)-1-[1-(2-fluoro-6-methyl-phenyl)-piperidin-4-yl]-4-methoxy-1,3-dihydro-benzoimidazol-2-one]",18
6,"COc1cccc2c1n(Cc1ccccc1OC1COC1)c(=O)n2C1CCN(c2c(C)cccc2F)CC1 [Example 225, 1-[1-(2-Fluoro-6-methyl-phenyl)-piperidin-4-yl]-4-methoxy-3-[2-(oxetan-3-yloxy)-benzyl]-1,3-dihydro-benzoimidazol-2-one]",40
7,"COc1cccc2c1n(Cc1ccccc1OC1CCC1)c(=O)n2C1CCN(c2c(C)cccc2F)CC1 [Example 226, 3-(2-Cyclobutoxy-benzyl)-1-[1-(2-fluoro-6-methyl-phenyl)-piperidin-4-yl]-4-methoxy-1,3-dihydro-benzoimidazol-2-one]",36
8,"COc1cccc2c1n(Cc1ccccc1C(F)(F)F)c(=O)n2C1CCN(c2c(C)cccc2F)CC1(C)C (stereo not shown) [Example 227, 1-[1-(2-Fluoro-6-methyl-phenyl)-3,3-dimethyl-piperidin-4-yl]-4-methoxy-3-(2-trifluoromethyl-benzyl)-1,3-dihydro-benzoimidazol-2-one]",30
9,"COc1cccc2c1n(Cc1ccccc1C(F)(F)F)c(=O)n2C1CCN(C(=O)OC(C)(C)C)CC1(C)C (stereo not shown) [Example 228, 4-[4-Methoxy-2-oxo-3-(2-trifluoromethyl-benzyl)-2,3-dihydro-benzoimidazol-1-yl]-3,3-dimethyl-piperidine-1-carboxylic acid tert-butyl ester]",259
10,"COc1cncc2c1n(Cc1ccccc1C(F)(F)F)c(=O)n2C1CCN(c2c(C)cccc2F)CC1 [Example 229, 3-[1-(2-Fluoro-6-methyl-phenyl)-piperidin-4-yl]-7-methoxy-1-(2-trifluoromethyl-benzyl)-1,3-dihydro-imidazo[4,5-c]pyridin-2-one]",268
11,"COc1cccc2c1n(Cc1ccccc1C(F)(F)F)c(=O)n2C1CCN(c2ccccc2O)CC1 [Example 230, 1-[1-(2-Hydroxy-phenyl)-piperidin-4-yl]-4-methoxy-3-(2-trifluoromethyl-benzyl)-1,3-dihydro-benzoimidazol-2-one]",129
12,"COc1cccc2c1n(Cc1ccccc1C(F)(F)F)c(=O)n2C1CCN(c2ccccc2OC2CCC2)CC1 [Example 241, 1-[1-(2-Cyclobutoxy-phenyl)-piperidin-4-yl]-4-methoxy-3-(2-trifluoromethyl-benzyl)-1,3-dihydro-benzoimidazol-2-one]",36
13,"CCCCOc1ccccc1N1CCC(n2c(=O)n(Cc3ccccc3C(F)(F)F)c3c(OC)cccc32)CC1 [Example 243, 1-[1-(2-Butoxy-phenyl)-piperidin-4-yl]-4-methoxy-3-(2-trifluoromethyl-benzyl)-1,3-dihydro-benzoimidazol-2-one]",61

# Next, values leading:
row,IC50 [nM],SMILES
1,66,"COc1cccc2c1n(Cc1ccccc1C(F)(F)F)c(=O)n2C1CCN(c2ccccc2OCc2ccccc2)CC1 [Example 231, 1-[1-(2-Benzyloxy-phenyl)-piperidin-4-yl]-4-methoxy-3-(2-trifluoromethyl-benzyl)-1,3-dihydro-benzoimidazol-2-one]"
2,82,"COc1cccc2c1n(Cc1ccccc1C(F)(F)F)c(=O)n2C1CCN(c2ncccc2C)CC1 [Example 232, 4-Methoxy-1-(3′-methyl-3,4,5,6-tetrahydro-2H-[1,2′]bipyridinyl-4-yl)-3-(2-trifluoromethyl-benzyl)-1,3-dihydro-benzoimidazol-2-one]"
3,195,"COc1cccnc1N1CCC(n2c(=O)n(Cc3ccccc3C(F)(F)F)c3c(OC)cccc32)CC1 [Example 233, 4-Methoxy-1-(3′-methoxy-3,4,5,6-tetrahydro-2H-[1,2′]bipyridinyl-4-yl)-3-(2-trifluoromethyl-benzyl)-1,3-dihydro-benzoimidazol-2-one]"
4,17,"COc1nccc(C)c1N1CCC(n2c(=O)n(Cc3ccccc3C(F)(F)F)c3c(OC)cccc32)CC1 [Example 234, 4-Methoxy-1-(2′-methoxy-4′-methyl-3,4,5,6-tetrahydro-2H-[1,3′]bipyridinyl-4-yl)-3-(2-trifluoromethyl-benzyl)-1,3-dihydro-benzoimidazol-2-one]"
5,28,"COc1cccc2c1n(Cc1ccccc1C(F)(F)F)c(=O)n2C1CCN(c2c(C)ccnc2F)CC1 [Example 235, 1-(2′-Fluoro-4′-methyl-3,4,5,6-tetrahydro-2H-[1,3′]bipyridinyl-4-yl)-4-methoxy-3-(2-trifluoromethyl-benzyl)-1,3-dihydro-benzoimidazol-2-one]"
6,171,"COc1cccc2c1n(Cc1ccccc1C(F)(F)F)c(=O)n2C1CCN(c2ncccc2F)CC1 [Example 236, 1-(3′-Fluoro-3,4,5,6-tetrahydro-2H-[1,2′]bipyridinyl-4-yl)-4-methoxy-3-(2-trifluoromethyl-benzyl)-1,3-dihydro-benzoimidazol-2-one]"
7,90,"COc1cccc2c1n(Cc1ccccc1C(F)(F)F)c(=O)n2C1CCN(c2c(C)ccnc2C)CC1 [Example 237, 1-(2′,4′-Dimethyl-3,4,5,6-tetrahydro-2H-[1,3′]bipyridinyl-4-yl)-4-methoxy-3-(2-trifluoromethyl-benzyl)-1,3-dihydro-benzoimidazol-2-one]"
8,133,"COc1cccc2c1n(Cc1ccccc1C(F)(F)F)c(=O)n2C1CCN(c2ccccc2OCCO)CC1 [Example 238, 1-{1-[2-(2-Hydroxy-ethoxy)-phenyl]-piperidin-4-yl}-4-methoxy-3-(2-trifluoromethyl-benzyl)-1,3-dihydro-benzoimidazol-2-one]"
9,82,"COc1cccc2c1n(Cc1ccccc1C(F)(F)F)c(=O)n2C1CCN(c2ccccc2OC2CCOCC2)CC1 [Example 239, 4-Methoxy-1-{1-[2-(tetrahydro-pyran-4-yloxy)-phenyl]-piperidin-4-yl}-3-(2-trifluoromethyl-benzyl)-1,3-dihydro-benzoimidazol-2-one]"
10,46,"COc1cccc2c1n(Cc1ccccc1C(F)(F)F)c(=O)n2C1CCN(c2ccccc2OCC2CC2)CC1 [Example 240, 1-[1-(2-Cyclopropylmethoxy-phenyl)-piperidin-4-yl]-4-methoxy-3-(2-trifluoromethyl-benzyl)-1,3-dihydro-benzoimidazol-2-one]"
11,74,"COc1cccc2c1n(Cc1ccccc1C(F)(F)F)c(=O)n2C1CCN(c2ccccc2OC2COC2)CC1 [Example 242, 4-Methoxy-1-{1-[2-(oxetan-3-yloxy)-phenyl]-piperidin-4-yl}-3-(2-trifluoromethyl-benzyl)-1,3-dihydro-benzoimidazol-2-one]"
12,227,"COc1cccc2c1n(Cc1ccccc1C(F)(F)F)c(=O)n2C1CCN(c2c(F)ccnc2C)CC1 [Example 244, 1-(4′-Fluoro-2′-methyl-3,4,5,6-tetrahydro-2H-[1,3′]bipyridinyl-4-yl)-4-methoxy-3-(2-trifluoromethyl-benzyl)-1,3-dihydro-benzoimidazol-2-one]"
13,111,"Cc1cccc(F)c1N1CCC(n2c(=O)n(Cc3ccccc3C(F)(F)F)c3c(C)cccc32)CC1 [Example 245, 1-[1-(2-Fluoro-6-methyl-phenyl)-piperidin-4-yl]-4-methyl-3-(2-trifluoromethyl-benzyl)-1,3-dihydro-benzoimidazol-2-one]"
14,39,"COc1cccc2c1n(Cc1ccccc1C(F)(F)F)c(=O)n2C1CCN(c2c(C)ccnc2C#N)CC1 [Example 246, 4-[4-Methoxy-2-oxo-3-(2-trifluoromethyl-benzyl)-2,3-dihydro-benzoimidazol-1-yl]-4′-methyl-3,4,5,6-tetrahydro-2H-[1,3′]bipyridinyl-2′-carbonitrile]"
15,563,"COc1ccnc(C)c1N1CCC(n2c(=O)n(Cc3ccccc3C(F)(F)F)c3c(OC)cccc32)CC1 [Example 247, 4-Methoxy-1-(4′-methoxy-2′-methyl-3,4,5,6-tetrahydro-2H-[1,3′]bipyridinyl-4-yl)-3-(2-trifluoromethyl-benzyl)-1,3-dihydro-benzoimidazol-2-one]"
